These compounds were tested against LRRK2(G2019S mutation, GST-LRRK2(amino acids 970-2527)) (Homo sapiens (Human), UniProt Q5S007, G2019S) (assay: LRRK2 Km ATP LanthaScreen Assay). Details: Examples N1-N25.
Assay type: biochemical
Protocol: Unless otherwise noted, all LRRK2 IC50 data presented in tables refers to the LRRK2 Km ATP LanthaScreen™ Assay that is described in the Biological Assay section.
The data presented for the 5 mM and Km ATP LanthaScreen™ Assay represents mean IC50 values based on several test results and may have reasonable. deviations depending on the specific conditions and reagents used. Reagents for the LRRK2 5 mM and Km ATP LanthaScreen™ Assay were purchased from Life Technologies Corporation.
LRRK2 Km ATP LanthaScreen™ Assay
a) 400 nl of a 1:2.15 serial dilution of test compound(98 μM top assay concentration) is spotted via Labcyte Echo to certain wells in a 384 well black, untreated plate. Control wells contain 400 nl of either DMSO or 400 nl of a known inhibitor in DMSO.
b) 10 μl of a 2.5 nM LRRK2(G2019S mutation, GST-LRRK2(amino acids 970-2527)) enzyme solution in 1× assay buffer(50 mM Tris pH 8.5, 10 mM MgCl2, 0.01% Brij-35, 1 mM EGTA, 2 mM DTT, 0.05 mM NaVO4) is added to all wells.
c) A 30 minute room temperature incubation is followed by addition of 10 μl of 800 nM fluorescein labeled LRRKtide peptide substrate and 184 μM ATP solution in 1× assay buffer to all wells.
d) After a 60 minute room temperature incubation, 20 μl of TR-FRET Dilution Buffer(Invitrogen PV3756B) containing 4 nM Tb-labeled anti-phospho LRRKtide antibody and 20 mM EDTA is added to all wells.
e) Plates are incubated at room temperature for 1 hour and read on an Envision™ multi-mode plate reader with LanthaScreen™ settings. Results are analysed using Assay Data Analyzer.

Sequence of LRRK2(G2019S mutation, GST-LRRK2(amino acids 970-2527)) (Q5S007 970-2527 G2019S): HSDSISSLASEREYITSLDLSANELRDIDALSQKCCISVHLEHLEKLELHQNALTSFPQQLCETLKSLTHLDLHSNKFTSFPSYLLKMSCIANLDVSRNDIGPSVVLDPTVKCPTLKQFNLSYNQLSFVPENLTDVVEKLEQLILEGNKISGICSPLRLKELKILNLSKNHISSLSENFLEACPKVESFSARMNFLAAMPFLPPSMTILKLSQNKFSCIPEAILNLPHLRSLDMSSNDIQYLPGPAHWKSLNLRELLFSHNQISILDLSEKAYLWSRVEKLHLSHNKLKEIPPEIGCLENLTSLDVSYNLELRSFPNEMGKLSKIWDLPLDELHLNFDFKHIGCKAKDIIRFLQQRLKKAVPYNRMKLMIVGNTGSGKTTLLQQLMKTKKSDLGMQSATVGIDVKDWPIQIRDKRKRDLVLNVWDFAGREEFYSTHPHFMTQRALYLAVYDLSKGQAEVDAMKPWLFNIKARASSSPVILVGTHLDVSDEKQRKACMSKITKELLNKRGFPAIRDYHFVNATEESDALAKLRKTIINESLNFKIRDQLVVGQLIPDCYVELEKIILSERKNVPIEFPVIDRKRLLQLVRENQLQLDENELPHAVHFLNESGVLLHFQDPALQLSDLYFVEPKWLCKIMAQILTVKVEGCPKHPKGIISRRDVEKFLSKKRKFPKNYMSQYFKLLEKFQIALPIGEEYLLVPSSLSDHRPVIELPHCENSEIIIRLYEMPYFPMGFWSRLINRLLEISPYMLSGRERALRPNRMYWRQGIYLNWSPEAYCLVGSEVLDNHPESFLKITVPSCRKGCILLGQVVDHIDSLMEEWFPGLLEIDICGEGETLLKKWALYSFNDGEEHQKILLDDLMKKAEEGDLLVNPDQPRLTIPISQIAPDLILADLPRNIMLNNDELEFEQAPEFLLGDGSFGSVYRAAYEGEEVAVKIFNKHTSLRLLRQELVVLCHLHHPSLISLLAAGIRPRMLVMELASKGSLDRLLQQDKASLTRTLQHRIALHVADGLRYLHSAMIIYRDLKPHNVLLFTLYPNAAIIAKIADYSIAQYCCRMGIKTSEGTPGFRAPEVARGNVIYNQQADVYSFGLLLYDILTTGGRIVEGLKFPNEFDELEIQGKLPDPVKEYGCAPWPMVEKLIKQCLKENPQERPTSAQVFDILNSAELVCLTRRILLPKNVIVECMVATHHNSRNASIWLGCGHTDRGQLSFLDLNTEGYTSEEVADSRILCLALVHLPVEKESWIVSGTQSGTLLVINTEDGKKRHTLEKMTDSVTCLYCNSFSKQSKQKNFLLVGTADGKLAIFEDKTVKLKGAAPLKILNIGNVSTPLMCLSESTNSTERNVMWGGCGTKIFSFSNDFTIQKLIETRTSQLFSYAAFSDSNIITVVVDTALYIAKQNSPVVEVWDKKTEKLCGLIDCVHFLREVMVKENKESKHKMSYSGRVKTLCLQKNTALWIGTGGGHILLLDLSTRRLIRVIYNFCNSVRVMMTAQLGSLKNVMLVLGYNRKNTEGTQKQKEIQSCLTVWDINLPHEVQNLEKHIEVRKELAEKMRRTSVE

Compound | IC50
COCC1CN(c2cc(-c3n[nH]c4cc(F)c(OC(C)C)cc34)ncn2)CCO1 (stereo not shown) [Example N12] | 2.9 nM
CC(C)Oc1cc2c(-c3cc(N4CCOC(C(F)(F)F)C4)ncn3)n[nH]c2cc1F (stereo not shown) [Example N3] | 26.6 nM
Cc1nc2c(o1)CCN(c1cc(-c3n[nH]c4cc(F)c(OC(C)C)cc34)ncn1)C2 [Example N14] | 6.4 nM

Same assay, conditions: Examples O1-O23

Compound | IC50
COC[C@H](C)Oc1ccc2[nH]nc(-c3cc(N4CCc5oc(C)nc5C4)ncn3)c2c1 [Example O17] | 8.4 nM
COC[C@H](C)Oc1ccc2[nH]nc(-c3cc(N4CCOC[C@H]4C)ncn3)c2c1 [Example O2] | 20.2 nM
COC[C@H](C)Oc1ccc2[nH]nc(-c3cc(N4CC[C@@H](CO)C4)ncn3)c2c1 [Example O7] | 3.6 nM
COC[C@H](C)Oc1ccc2[nH]nc(-c3cc(N4CCC(F)(F)CC4)ncn3)c2c1 [Example O19] | 8 nM
COC[C@H](C)Oc1ccc2[nH]nc(-c3cc(N4CC(OC)C4)ncn3)c2c1 [Example O10] | 5.6 nM
COCC1CN(c2cc(-c3n[nH]c4ccc(O[C@@H](C)COC)cc34)ncn2)CCO1 (stereo partly shown) [Example O13] | 3.6 nM

Same assay, conditions: Examples P1-P18

Compound | IC50
CCN(CC)C(=O)c1ccc(-c2ccc3[nH]nc(-c4cc(N5CCOCC5)ncn4)c3c2)cc1 [Example P8] | 608 nM
Cn1nccc1-c1ccc2[nH]nc(-c3cc(N4CCOCC4)ncn3)c2c1 [Example P13] | 45.7 nM
COc1ncccc1-c1ccc2[nH]nc(-c3cc(N4CCOCC4)ncn3)c2c1 [Example P14] | 37.7 nM

Same assay, conditions: Examples Q1-Q20

Compound | IC50
C[C@@H]1CN(c2cc(-c3n[nH]c4ccc(-c5ccncc5)cc34)ncn2)C[C@H](C)O1 [Example Q6] | 49.5 nM
COc1cnc(-c2ccc3[nH]nc(-c4cc(N5C[C@@H](C)O[C@@H](C)C5)ncn4)c3c2)cn1 [Example Q7] | 63.4 nM
C[C@@H]1CN(c2cc(-c3n[nH]c4ccc(-c5ccc(C#N)cc5)cc34)ncn2)C[C@H](C)O1 [Example Q18] | 177 nM
C[C@@H]1CN(c2cc(-c3n[nH]c4ccc(-c5cncnc5)cc34)ncn2)C[C@H](C)O1 [Example Q8] | 30.3 nM
C[C@@H]1CN(c2cc(-c3n[nH]c4ccc(-c5ccc6nncn6c5)cc34)ncn2)C[C@H](C)O1 [Example Q16] | 60.6 nM
COCCn1cc(-c2ccc3[nH]nc(-c4cc(N5C[C@@H](C)O[C@@H](C)C5)ncn4)c3c2)cn1 [Example Q14] | 1.8 nM
C[C@@H]1CN(c2cc(-c3n[nH]c4ccc(-c5cccc(C#N)c5)cc34)ncn2)C[C@H](C)O1 [Example Q19] | 47.9 nM

Same assay, conditions: Km ATP (184 μM ATP solution), G2019S LRRK2, mean IC50

Compound | IC50
Cn1cc(-c2ccc3[nH]nc(-c4cc(N5CCCC(C)(O)C5)ncn4)c3c2)cn1 (stereo not shown) [Example M8] | 7.9 nM
CCN1CCN(c2cc(-c3n[nH]c4ccc(OC(C)C)cc34)ncn2)CC1 [Example K3] | 6 nM
Cn1cc(-c2cc3c(-c4cc(N5CCCC(C)(O)C5)ncn4)n[nH]c3cc2F)cn1 (stereo not shown) [Example L7] | 67.5 nM
CC(C)Oc1ccc2[nH]nc(-c3cc(N4CC(F)(F)C4)ncn3)c2c1 [Example J18] | 24.3 nM
Cn1cc(-c2cc3c(-c4cc(N5CCn6ncnc6C5)ncn4)n[nH]c3cc2F)cn1 [Example L1] | 63.9 nM
COC[C@H](C)Oc1ccc2[nH]nc(-c3cc(N4CCC5(CCN(C)C5=O)CC4)ncn3)c2c1 [Example H15] | 3.71 nM
CC(C)Oc1cc2c(-c3cc(N4CCO[C@@H](C)C4)ncn3)n[nH]c2cc1F [Example D38] | 5.01 nM
CCOc1ccc2[nH]nc(-c3cc(N4C[C@H](F)[C@@H](F)C4)ncn3)c2c1 [Example F3] | 26.6 nM
CC(C)Oc1cc2c(-c3cc(N4CCN(C(=O)C5CC5)CC4)ncn3)n[nH]c2cc1F [Example D65] | 2.98 nM
COCCOc1ccc2[nH]nc(-c3cc(N4CCO[C@@H](C)C4)ncn3)c2c1 [Example G11] | 101 nM
CC(C)Oc1ccc2[nH]nc(-c3cc(N4CCOCC4C)ncn3)c2c1 (stereo not shown) [Example D13] | 19.8 nM
CC(C)Oc1ccc2[nH]nc(-c3cc(N4CCN(CCF)C(=O)C4)ncn3)c2c1 [Example D33] | 3.3 nM
CC(C)Oc1ccc2[nH]nc(-c3cc(N4CC(S(C)(=O)=O)C4)ncn3)c2c1 [Example J16] | 13.3 nM
Cc1noc(C2CN(c3cc(-c4n[nH]c5ccc(OC(C)C)cc45)ncn3)C2)n1 [Example J22] | 9.3 nM
CC(=O)N1CCN(c2cc(-c3n[nH]c4ccc(OC(C)C)cc34)ncn2)CC1 [Example K5] | 11.2 nM
CC(C)Oc1cc2c(-c3cc(N4CCN(C5CC5)CC4)ncn3)n[nH]c2cc1F [Example D45] | 3.99 nM
COC(=O)N1CCN(c2cc(-c3n[nH]c4ccc(OC(C)C)cc34)ncn2)CC1 [Example K9] | 10.2 nM
CC(C)Oc1cc2c(-c3cc(N4C[C@H](O)[C@@H](N)[C@@H]4C)ncn3)n[nH]c2cc1F [Example D61] | 11.7 nM
CCOc1ccc2[nH]nc(-c3cc(N4CCN(C)C(=O)C4)ncn3)c2c1 [Example F7] | 37.1 nM
CC(C)Oc1ccc2[nH]nc(-c3cc(N4CCN(c5cnn(C)c5)CC4)ncn3)c2c1 [Example K17] | 5.4 nM
CC(C)Oc1ccc2[nH]nc(-c3cc(N4CCC(F)(CO)CC4)ncn3)c2c1 [Example K20] | 6.3 nM
COc1ccc2[nH]nc(-c3cc(N4CCN(C)CC4)ncn3)c2c1 [Example E7] | 28.2 nM
COC[C@H](C)Oc1ccc2[nH]nc(-c3cc(N4C[C@@H](C)O[C@@H](C)C4)ncn3)c2c1 [Example H5] | 1.7 nM

Compound | IC50
CC(C)Oc1cc2c(-c3cc(N4CCN(S(=O)(=O)C5CC5)CC4)ncn3)n[nH]c2cc1F [Example D63] | 4.17 nM
CC(C)Oc1ccc2[nH]nc(-c3cc(N4C[C@H](O)[C@@H](N(C)C)C4)ncn3)c2c1 [Example J7] | 15.3 nM
CC(C)Oc1ccc2[nH]nc(-c3cc(N4CCN(C(=O)C5CCCO5)CC4)ncn3)c2c1 (stereo not shown) [Example K6] | 58.1 nM
Cn1cc(-c2ccc3[nH]nc(-c4cc(N5CCOC6(CC6)C5)ncn4)c3c2)cn1 [Example A4] | 2.01 nM
Cn1cc(-c2ccc3[nH]nc(-c4cc(N5CCCC6(CCO6)C5)ncn4)c3c2)cn1 (stereo not shown) [Example M16] | 10.9 nM
CC(C)Oc1ccc2[nH]nc(-c3cc(N4CC[C@@H](N)C4)ncn3)c2c1 [Example D43] | 8.78 nM
CC(C)Oc1ccc2[nH]nc(-c3cc(N4CC[C@H](F)C4)ncn3)c2c1 [Example J26] | 9.5 nM
CC(C)Oc1ccc2[nH]nc(-c3cc(N4CCc5nc(C6CC6)oc5C4)ncn3)c2c1 [Example J20] | 43 nM
CC(C)Oc1ccc2[nH]nc(-c3cc(N4CCC(n5ccnc5)C4)ncn3)c2c1 (stereo not shown) [Example K11] | 11.3 nM
COC[C@H](C)Oc1ccc2[nH]nc(-c3cc(N4CCC5(CCCO5)CC4)ncn3)c2c1 [Example H14] | 2.02 nM
CC(C)Oc1ccc2[nH]nc(-c3cc(N4CCC(O)CC4)ncn3)c2c1 [Example J1] | 5.9 nM
CC(C)Oc1cc2c(-c3cc(N4C[C@H](O)[C@@H](O)[C@@H]4C)ncn3)n[nH]c2cc1F [Example D57] | 15.5 nM
CCN1CCN(c2cc(-c3n[nH]c4ccc(OC(C)C)cc34)ncn2)CC1=O [Example D28] | 5.6 nM
CC(C)Oc1ccc2[nH]nc(-c3cc(N4CCO[C@@H](C)C4)ncn3)c2c1 [Example D20] | 21.4 nM
COC1CCN(c2cc(-c3n[nH]c4ccc(-c5cnn(C)c5)cc34)ncn2)CC1 [Example A12] | 2.04 nM
CC(C)Oc1ccc2[nH]nc(-c3cc(N4CCN(c5ccncn5)CC4)ncn3)c2c1 [Example J24] | 15.8 nM
CC(C)Oc1ccc2[nH]nc(-c3cc(N4CCCN(S(C)(=O)=O)CC4)ncn3)c2c1 [Example J11] | 51.3 nM
CC(C)Oc1ccc2[nH]nc(-c3cc(N4C[C@H](N)C[C@@H]4C)ncn3)c2c1 [Example D52] | 11.1 nM
Cn1cc(-c2ccc3[nH]nc(-c4cc(N5CCN(C6CC6)CC5)ncn4)c3c2)cn1 [Example A2] | 2.62 nM
Cn1cc(-c2ccc3[nH]nc(-c4cc(N5CC6CCC(C5)O6)ncn4)c3c2)cn1 [Example A10] | 5.18 nM
COC[C@H](C)Oc1ccc2[nH]nc(-c3cc(N4CCN(S(C)(=O)=O)CC4)ncn3)c2c1 [Example H6] | 4.5 nM
CCOc1ccc2[nH]nc(-c3cc(N4CCN(CC)C(=O)C4)ncn3)c2c1 [Example F9] | 16.7 nM
CC(C)Oc1ccc2[nH]nc(-c3cc(N4CCOC(C)(C)C4)ncn3)c2c1 [Example D3] | 6.37 nM

Same assay, conditions: Table U

Compound | IC50
c1nc(-c2n[nH]c3ccc(-c4ccoc4)cc23)cc(N2CCOCC2)n1 [Example U8] | 19 nM
COc1ccncc1-c1ccc2[nH]nc(-c3cc(N4CCOCC4)ncn3)c2c1 [Example U13] | 1.72 nM
Cc1n[nH]c(C)c1-c1ccc2[nH]nc(-c3cc(N4CCO[C@H](C)C4)ncn3)c2c1 [Example U29] | 3.2 nM
CC(C)N1CCN(c2cc(-c3n[nH]c4ccc(-c5cccs5)cc34)ncn2)CC1 [Example U21] | 61.5 nM
FC1(F)CCN(c2cc(-c3n[nH]c4ccc(-c5cn[nH]c5)cc34)ncn2)CC1 [Example U7] | 5.69 nM
